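Where inhibition never reached the appropriate level, the endpoint shown equals the highest concentration tested. Otherwise, values were interpolated linearly from a five-concentration, 48-hour dose response in 96-well plates. TGI is the concentration that stops growth completely.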 Bounds are passed on as bounds.

Test systems include MALME-3M melanoma; UO-31 renal; HOP-92 NSCLC; RPMI-8226 leukemia; UACC-62 melanoma; IGROV1 ovarian; MOLT-4 leukemia; COLO 205 colon; NCI/ADR-RES ovarian; CCRF-CEM leukemia; HCC-2998 colon.
Common to all, as to experiment: growth of human tumour cells (NCI), 48 h

In the case of `COC1CC(C)(NC(=O)C(F)(F)F)C2OC(c3ccccc3)OCC2O1` (stereo not drawn), the TGI in the assay on MALME-3M melanoma, with UO-31 renal, in the assay with HOP-92 NSCLC, in the assay on RPMI-8226 leukemia, in the assay on UACC-62 melanoma and in the assay on IGROV1 ovarian was > 100 µM each time. The TGI in the assay on MOLT-4 leukemia, with COLO 205 colon, in the assay on NCI/ADR-RES ovarian and with CCRF-CEM leukemia was > 100 µM throughout.
For `C/C(=N\Nc1nc2ccccc2s1)c1ccncn1`, the TGI is 20.3 µM in the assay on MALME-3M melanoma; > 41.9 µM in the assay on HCC-2998 colon; 10.2 µM in the assay on UO-31 renal; > 30.1 µM with HOP-92 NSCLC; > 26 µM in the assay with RPMI-8226 leukemia; > 26.5 µM with UACC-62 melanoma. For the same compound, the TGI was 4.39 µM with IGROV1 ovarian, 11.1 µM in the assay with COLO 205 colon, 1.67 µM with NCI/ADR-RES ovarian and > 100 µM with CCRF-CEM leukemia.
With `C=C(Br)CN=CN(C)C`, the TGI in the assay with MALME-3M melanoma, in the assay on UO-31 renal, in the assay on HOP-92 NSCLC, with RPMI-8226 leukemia, in the assay with UACC-62 melanoma and with IGROV1 ovarian was > 100 µM in each case. For the same compound, the TGI with MOLT-4 leukemia, in the assay on COLO 205 colon, in the assay with NCI/ADR-RES ovarian and in the assay on CCRF-CEM leukemia was > 100 µM in each case.
As for `ClC1=NN=C(c2c[nH]c3ccccc23)CC1NCc1ccccc1` (stereo not drawn), the TGI with MALME-3M melanoma, in the assay on UO-31 renal, with HOP-92 NSCLC, with RPMI-8226 leukemia, with UACC-62 melanoma and in the assay with IGROV1 ovarian was > 100 µM throughout. Further, the TGI with MOLT-4 leukemia, in the assay with COLO 205 colon, with NCI/ADR-RES ovarian and in the assay with CCRF-CEM leukemia was > 100 µM each time.
In the case of `N#Cc1c(-c2ccc([N+](=O)[O-])cc2)c(C#N)c(=O)n(NS(=O)(=O)c2ccccc2)c1S`, the TGI was > 100 µM in the assay on MALME-3M melanoma; > 100 µM in the assay on HCC-2998 colon; > 100 µM in the assay with HOP-92 NSCLC; 44.6 µM with RPMI-8226 leukemia; 60.3 µM with UACC-62 melanoma; 48.3 µM in the assay with IGROV1 ovarian. In addition, the TGI in the assay on MOLT-4 leukemia was 46.5 µM; in the assay on COLO 205 colon, > 100 µM; with NCI/ADR-RES ovarian, > 100 µM; in the assay on CCRF-CEM leukemia, 49.3 µM.
On to `C=C(NC(=O)C(=C)NC(=O)c1ccc2c(n1)-c1coc(n1)C(=C)NC(=O)C(=C)NC(=O)c1nc(oc1C)C(=C)NC(=O)C(C(C)(C)O)NC(=O)C(=C)NC(=O)c1coc(n1)/C(=C/C)NC(=O)[C@H]([C@@H](C)O)NC(=O)c1csc-2n1)C(N)=O` (stereo partly drawn), for which the TGI in the assay with MALME-3M melanoma, in the assay with HCC-2998 colon, in the assay with UO-31 renal, with HOP-92 NSCLC, in the assay on RPMI-8226 leukemia and with IGROV1 ovarian was > 87.5 µM throughout. In addition, the TGI in the assay on MOLT-4 leukemia, with COLO 205 colon, with NCI/ADR-RES ovarian and in the assay on CCRF-CEM leukemia was > 87.5 µM throughout.
Regarding `COP(=O)(OC)OCN(C)CC/C=C(\C)CC/C=C(\C)CCC=C(C)C`, the TGI in the assay with MALME-3M melanoma was 28.2 µM; in the assay on HCC-2998 colon, 23.8 µM; in the assay with UO-31 renal, 28.3 µM; in the assay on HOP-92 NSCLC, 34.8 µM; with RPMI-8226 leukemia it was 28.3 µM; in the assay on IGROV1 ovarian, 25.8 µM. For the same compound, the TGI in the assay with MOLT-4 leukemia amounted to 28.9 µM; with COLO 205 colon it was 34 µM; in the assay with NCI/ADR-RES ovarian, 30.5 µM; in the assay on CCRF-CEM leukemia, 51.9 µM.
Turning to `COc1cc2c(/C=C3/C(=O)Nc4ccccc43)c(Cl)n(Cc3ccc(Cl)cc3)c2cc1C`, the TGI with MALME-3M melanoma stood at 14.5 µM; in the assay with HCC-2998 colon it was 0.432 µM; in the assay with UO-31 renal, 17.6 µM; in the assay on HOP-92 NSCLC it was 39.5 µM; in the assay on RPMI-8226 leukemia, 0.925 µM; in the assay on UACC-62 melanoma it was 2.5 µM. The TGI in the assay with IGROV1 ovarian came to 16 µM; with MOLT-4 leukemia, 0.627 µM; in the assay with COLO 205 colon it was 0.665 µM; in the assay on NCI/ADR-RES ovarian, 0.612 µM.
Consider `CC1=C(C)C(=O)C(C2=CC(=O)c3ccccc3C2=O)=C(C2=CC(=O)c3ccccc3C2=O)C1=O`, for which the TGI with MALME-3M melanoma is 4.33 µM; with HCC-2998 colon, 19.8 µM; with UO-31 renal, 25.4 µM; in the assay on HOP-92 NSCLC it was > 83.3 µM; with UACC-62 melanoma it was 27.6 µM; in the assay on IGROV1 ovarian it was 29.8 µM. Moreover, the TGI with MOLT-4 leukemia is > 36.2 µM; with COLO 205 colon, 9.77 µM; with NCI/ADR-RES ovarian, > 100 µM.
Turning to `COC(=O)C1=C(CCCCO[Si](C)(C)C(C)(C)C)NC(=O)N2[C@H](CCOCc3ccccc3)CC[C@@H]12`, the TGI in the assay with MALME-3M melanoma, in the assay on HCC-2998 colon, with UO-31 renal, in the assay on HOP-92 NSCLC, in the assay on RPMI-8226 leukemia and in the assay with UACC-62 melanoma was > 100 µM throughout. Further, the TGI in the assay with MOLT-4 leukemia, with COLO 205 colon and in the assay on NCI/ADR-RES ovarian was > 100 µM throughout.
`CCN1CC2(C)CCC(OC)C34C5CC6CCC(O)(C5C(=O)O6)C(C(O)C23)C14` (stereo not drawn): the TGI in the assay with MALME-3M melanoma, with UO-31 renal, in the assay on HOP-92 NSCLC, in the assay with RPMI-8226 leukemia, with UACC-62 melanoma and in the assay on IGROV1 ovarian was > 100 µM each time. Also, the TGI in the assay with MOLT-4 leukemia, with COLO 205 colon, with NCI/ADR-RES ovarian and in the assay on CCRF-CEM leukemia was > 100 µM throughout.
With `O=C(O)c1c(CC(Cc2ccc3c(c2)CCC3)C(=O)O)ccc2c1CCC2` (stereo not drawn), the TGI in the assay on MALME-3M melanoma, with HCC-2998 colon, in the assay with UO-31 renal, in the assay with HOP-92 NSCLC, with RPMI-8226 leukemia and with IGROV1 ovarian was > 100 µM each time. The TGI in the assay on MOLT-4 leukemia, with COLO 205 colon, with NCI/ADR-RES ovarian and in the assay on CCRF-CEM leukemia was > 100 µM throughout.
For the compound `CC(O)c1nc(C#N)c(N)o1` (stereo not drawn), the TGI in the assay on MALME-3M melanoma, in the assay with UO-31 renal, in the assay with HOP-92 NSCLC, with RPMI-8226 leukemia, in the assay on UACC-62 melanoma and with IGROV1 ovarian was > 100 µM each time. In addition, the TGI in the assay on MOLT-4 leukemia, in the assay on COLO 205 colon, in the assay on NCI/ADR-RES ovarian and with CCRF-CEM leukemia was > 100 µM in each case.

The values are drawn from PubChem BioAssay (NCI).
